The record followed here is patent US7893074B2, “2, 4-pyrimidinediamines useful in the treatment of neoplastic diseases, inflammatory and immune system disorders” (Novartis AG, priority 2003, dated 2011).

Where two headings read alike, the source gives them in different places.

In one test the test system is T Cell. Description: T Cell Migration. The class given is cell-based.
In another test the target is FAK (Mus musculus, UniProt P34152). Description: Phos IC50 (phosphorylation). The class given is cell-based.
Chain of FAK (P34152 2-1052): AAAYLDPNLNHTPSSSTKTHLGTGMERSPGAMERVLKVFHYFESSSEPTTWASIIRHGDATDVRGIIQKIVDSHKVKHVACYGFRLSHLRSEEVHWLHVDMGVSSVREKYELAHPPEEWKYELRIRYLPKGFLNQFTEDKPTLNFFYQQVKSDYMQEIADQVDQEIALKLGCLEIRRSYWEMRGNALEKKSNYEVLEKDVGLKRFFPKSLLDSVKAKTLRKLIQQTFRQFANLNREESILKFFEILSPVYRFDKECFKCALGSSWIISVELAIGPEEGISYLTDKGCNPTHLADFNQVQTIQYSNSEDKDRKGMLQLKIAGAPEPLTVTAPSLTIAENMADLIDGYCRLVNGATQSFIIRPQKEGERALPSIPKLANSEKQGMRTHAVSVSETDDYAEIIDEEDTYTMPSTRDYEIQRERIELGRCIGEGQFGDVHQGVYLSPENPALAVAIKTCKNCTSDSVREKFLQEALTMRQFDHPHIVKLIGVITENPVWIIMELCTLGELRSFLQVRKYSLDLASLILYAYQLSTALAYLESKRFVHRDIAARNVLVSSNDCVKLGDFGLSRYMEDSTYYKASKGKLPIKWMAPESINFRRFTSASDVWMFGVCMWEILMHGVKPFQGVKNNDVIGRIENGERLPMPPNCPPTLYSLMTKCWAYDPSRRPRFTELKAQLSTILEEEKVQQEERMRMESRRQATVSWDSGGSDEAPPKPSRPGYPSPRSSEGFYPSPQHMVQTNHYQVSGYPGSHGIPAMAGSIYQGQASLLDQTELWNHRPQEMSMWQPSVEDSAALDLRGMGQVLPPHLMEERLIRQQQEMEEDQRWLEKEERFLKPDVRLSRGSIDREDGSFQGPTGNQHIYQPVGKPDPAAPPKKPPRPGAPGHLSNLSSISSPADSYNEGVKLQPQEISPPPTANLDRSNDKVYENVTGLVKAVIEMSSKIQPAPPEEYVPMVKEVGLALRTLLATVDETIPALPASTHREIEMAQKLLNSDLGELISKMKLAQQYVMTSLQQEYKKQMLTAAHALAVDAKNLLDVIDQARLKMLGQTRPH
In test [1] the test system is Mouse mammary carcinoma 4T1 cells. Description: Anchorage-independent tumor cell growth assay. The class given is cell-based. On the procedure: Cells are cultured for 2 h and inhibitors are added at various concentrations in a final concentration of 0.1% DMSO. After 48 h, cell growth is assayed with the cell counting kit-8 (Wako Pure Chemical), which uses a water soluble tetrazolium salt WST8. Twenty μL of the reagent is added into each well and cells are further cultured for 2 h. The optical density is measured at 450 nm.

In test [2] the target is Focal Adhesion Kinase (FAK) (Homo sapiens, UniProt Q05397). Description: FAK assay system (Focal Adhesion Kinase inhibition). The format is biochemical.
Chain of Focal Adhesion Kinase (FAK) (Q05397 384-706): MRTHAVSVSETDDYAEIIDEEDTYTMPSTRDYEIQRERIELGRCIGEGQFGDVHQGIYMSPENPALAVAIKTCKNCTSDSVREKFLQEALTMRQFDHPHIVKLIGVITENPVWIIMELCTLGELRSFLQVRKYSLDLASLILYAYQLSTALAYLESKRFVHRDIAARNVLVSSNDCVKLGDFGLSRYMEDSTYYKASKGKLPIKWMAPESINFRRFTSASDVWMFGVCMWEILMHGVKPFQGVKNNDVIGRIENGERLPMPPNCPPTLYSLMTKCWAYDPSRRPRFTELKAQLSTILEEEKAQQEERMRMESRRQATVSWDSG
The next test concerns the target IGF-IR (Homo sapiens, UniProt P08069). Description: Cellular Capture ELISA of IGF-I induced autophosphorylation of the IGF-IR. The format is cell-based. As to conditions: read-out: IGF-1R IC50. On the procedure:
In this assay the activity of the compounds of the invention against Insulin-like growth factor I (IGF-I) induced autophosphorylation of the IGF-IR is determined.
On the technique in general: In an ELISA, binding on a coated surface is turned into a signal by an enzyme label.

Chain of IGF-IR (P08069 31-1367): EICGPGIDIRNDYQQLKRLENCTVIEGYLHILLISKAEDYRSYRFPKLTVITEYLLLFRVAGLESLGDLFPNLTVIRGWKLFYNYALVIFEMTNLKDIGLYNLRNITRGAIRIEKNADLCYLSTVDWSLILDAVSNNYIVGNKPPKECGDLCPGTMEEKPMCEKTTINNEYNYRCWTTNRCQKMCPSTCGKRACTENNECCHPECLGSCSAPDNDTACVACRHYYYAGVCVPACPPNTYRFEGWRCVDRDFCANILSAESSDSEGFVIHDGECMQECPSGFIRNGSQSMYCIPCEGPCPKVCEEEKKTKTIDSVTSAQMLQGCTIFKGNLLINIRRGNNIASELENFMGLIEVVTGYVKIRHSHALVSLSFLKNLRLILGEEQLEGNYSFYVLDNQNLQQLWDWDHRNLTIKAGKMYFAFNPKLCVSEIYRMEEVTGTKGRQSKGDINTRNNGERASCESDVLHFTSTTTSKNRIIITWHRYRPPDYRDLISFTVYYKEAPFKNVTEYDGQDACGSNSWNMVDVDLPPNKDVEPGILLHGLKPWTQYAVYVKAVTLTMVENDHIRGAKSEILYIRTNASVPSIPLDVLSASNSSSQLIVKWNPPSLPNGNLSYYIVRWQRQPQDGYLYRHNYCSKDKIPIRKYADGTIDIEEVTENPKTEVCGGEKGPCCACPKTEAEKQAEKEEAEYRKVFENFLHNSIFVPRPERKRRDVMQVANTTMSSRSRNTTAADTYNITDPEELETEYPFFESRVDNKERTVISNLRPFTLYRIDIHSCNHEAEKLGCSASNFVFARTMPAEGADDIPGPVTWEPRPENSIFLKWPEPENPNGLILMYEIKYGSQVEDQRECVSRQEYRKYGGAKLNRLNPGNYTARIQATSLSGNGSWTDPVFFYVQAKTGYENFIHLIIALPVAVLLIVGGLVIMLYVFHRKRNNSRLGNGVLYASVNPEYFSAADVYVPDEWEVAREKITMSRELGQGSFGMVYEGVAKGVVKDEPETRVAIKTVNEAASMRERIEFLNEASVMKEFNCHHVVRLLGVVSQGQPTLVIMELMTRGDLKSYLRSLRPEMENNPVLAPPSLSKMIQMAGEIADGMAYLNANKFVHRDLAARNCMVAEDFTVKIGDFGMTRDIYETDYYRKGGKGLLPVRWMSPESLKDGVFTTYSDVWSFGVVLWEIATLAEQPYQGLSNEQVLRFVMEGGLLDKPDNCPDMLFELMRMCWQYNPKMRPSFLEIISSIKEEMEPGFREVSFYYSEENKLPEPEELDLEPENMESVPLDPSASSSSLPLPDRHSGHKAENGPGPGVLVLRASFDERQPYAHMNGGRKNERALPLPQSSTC

Take `CNS(=O)(=O)c1ccccc1Nc1nc(Nc2cc(N3CCN(C(C)=O)CC3)ccc2OC)ncc1Br` [Example 3-34]: the 50% inhibitory concentration (IC50) (usually the concentration at which inhibition is half-maximal) in the test with T Cell (T-cell) came out at 130 nM; against FAK, 100 nM; in test [1] (Mus musculus, 4T1), 240 nM.

Consider `CNS(=O)(=O)c1ccccc1Nc1nc(Nc2ccc(N3CCCC(C(N)=O)C3)cc2OC)ncc1Br` (stereo not drawn) [Example 3-68], for which the IC50 was 5.5 nM in test [2] (FAK IC50); 1000 nM with T Cell (T-cell); 630 nM in test [1] (Mus musculus, 4T1).

For `CNC(=O)c1ccccc1Nc1nc(Nc2cc(N3CCN(C(C)=O)CC3)ccc2OC)ncc1Cl` [Example 7-30], the 50% inhibitory concentration (IC50) in test [2] (read-out: FAK IC50) worked out at 2.1 nM; in the test with T Cell (T-cell) it was 1000 nM; in test [1] (Mus musculus, 4T1) it was 300 nM.

As for `COc1cc(N2CCC(N3CCN(C)CC3)CC2)ccc1Nc1ncc(Cl)c(Nc2ccccc2S(=O)(=O)NC(C)C)n1` [Example 19-4], the IC50 in test [2] (read-out: FAK IC50) worked out at 1.6 nM; on IGF-IR it was 140 nM; at FAK, 200 nM; in test [1] (Mus musculus, 4T1) it was 340 nM.

With `COc1cc(NCC(C)(C)CN(C)C)ccc1Nc1ncc(Cl)c(Nc2ccccc2S(=O)(=O)NC(C)C)n1` [Example 19-10], the half-maximal inhibitory concentration (IC50) in test [2] (read-out: FAK IC50) was 1.3 nM; on IGF-IR it was 1020 nM; against FAK, 60 nM; in test [1] (Mus musculus, 4T1), 560 nM.

`CNC1CCN(c2ccc(Nc3ncc(Cl)c(Nc4ccccc4S(=O)(=O)NC(C)C)n3)c(OC)c2F)C1` (stereo not drawn) [Example 19-12]: the concentration for half-maximal inhibition (IC50) in test [2] (read-out: FAK IC50) was 9 nM; at IGF-IR it was 630 nM; at FAK it was above 10000 nM; in test [1] (Mus musculus, 4T1), 700 nM.

For the compound `COc1cc(OC2CCN(C)C2)ccc1Nc1ncc(Cl)c(Nc2ccccc2S(=O)(=O)NC(C)C)n1` (stereo not drawn) [Example 19-20], the half-maximal inhibitory concentration (IC50) in test [2] (read-out: FAK IC50) worked out at 1.6 nM; on IGF-IR, 230 nM; against FAK it was 30 nM; in test [1] (Mus musculus, 4T1), 70 nM.

Consider `CC(C)NS(=O)(=O)c1ccccc1Nc1nc(Nc2ccc(N3CCOCC3)cc2F)ncc1Cl` [Example 19-25], for which the concentration for half-maximal inhibition (IC50) in test [2] (read-out: FAK IC50) came to 7.2 nM; on IGF-IR it was 240 nM; at FAK, 1000 nM; in test [1] (Mus musculus, 4T1), 490 nM.

As to `CNS(=O)(=O)c1ccccc1Nc1nc(Nc2ccccc2OC(F)(F)F)ncc1Cl` [Example 20-3], the IC50 in test [2] (read-out: FAK IC50) stood at 42 nM; at IGF-IR, 2780 nM; on FAK, 400 nM; in test [1] (Mus musculus, 4T1), 2500 nM.

As to `CNS(=O)(=O)c1ccccc1Nc1nc(Nc2ccc(N3CCNCC3)cc2OC)ncc1Cl` [Example 20-7], the IC50 came to 3 nM in test [2] (read-out: FAK IC50); 380 nM on IGF-IR; 100 nM against FAK; 50 nM in test [1] (Mus musculus, 4T1).

For `CNS(=O)(=O)c1ccccc1Nc1nc(Nc2ccc(N3CCC(N4CCCCC4)CC3)cc2OC)ncc1Cl` [Example 20-8], the IC50 turned out to be 290 nM in the test with T Cell and 50 nM in test [1].

As to `CNS(=O)(=O)c1ccccc1Nc1nc(Nc2ccc(OC3CCN(C)CC3)cc2OC)ncc1Cl` [Example 20-27], the IC50 in test [2] (read-out: FAK IC50) stood at 12 nM; on IGF-IR it was 290 nM; against FAK, 850 nM; in test [1] (Mus musculus, 4T1) it was 50 nM.

In the case of `CNS(=O)(=O)c1ccccc1Nc1nc(Nc2ccc(OC3CCN(C(C)C)C3)cc2OC)ncc1Cl` (stereo not drawn) [Example 20-28], the IC50 in test [2] (read-out: FAK IC50) turned out to be 9.2 nM; at IGF-IR, 420 nM; against FAK, 170 nM; in test [1] (Mus musculus, 4T1), 80 nM.

On to `CCN1CCC(Oc2ccc(Nc3ncc(Cl)c(Nc4ccccc4S(=O)(=O)NC)n3)c(OC)c2)C1` (stereo not drawn) [Example 20-30], for which the half-maximal inhibitory concentration (IC50) was determined as 7.6 nM in test [2] (read-out: FAK IC50); 670 nM at IGF-IR; 300 nM against FAK; 80 nM in test [1] (Mus musculus, 4T1).

`CNS(=O)(=O)c1ccccc1Nc1nc(Nc2cc(OC)c(OC)cc2C)ncc1Cl` [Example 20-35]: the IC50 in test [2] (read-out: FAK IC50) is 8.7 nM; on IGF-IR, 150 nM; against FAK, 90 nM; in test [1] (Mus musculus, 4T1), 90 nM.

`COc1cc(N2CCOCC2)ccc1Nc1ncc(Cl)c(Nc2ccccc2S(=O)(=O)NCC(C)C)n1` [Example 22-3]: the IC50 in test [2] (read-out: FAK IC50) came out at 6.6 nM; on IGF-IR, 260 nM; at FAK, 90 nM; in test [1] (Mus musculus, 4T1), 150 nM.

For `CCC(CC)NS(=O)(=O)c1ccccc1Nc1nc(Nc2ccc(N3CCN(C)CC3)cc2OC)ncc1Cl` [Example 23-2], the IC50 in test [2] (read-out: FAK IC50) was 1.5 nM; at IGF-IR, 800 nM; at FAK, 200 nM; in test [1] (Mus musculus, 4T1) it was 400 nM.

Turning to `CCC(CC)NS(=O)(=O)c1ccccc1Nc1nc(Nc2ccc(N3CCC(NC)C3)cc2OC)ncc1Cl` (stereo not drawn) [Example 23-3], the IC50 was found to be 1.7 nM in test [2] (read-out: FAK IC50); 820 nM on IGF-IR; 1000 nM on FAK; 1120 nM in test [1] (Mus musculus, 4T1).

Turning to `CCNC1CCN(c2ccc(Nc3ncc(Cl)c(Nc4ccccc4S(=O)(=O)NC(CC)CC)n3)c(OC)c2)C1` (stereo not drawn) [Example 23-4], the IC50 is 1.2 nM in test [2] (read-out: FAK IC50); 600 nM at IGF-IR; 900 nM against FAK; 1070 nM in test [1] (Mus musculus, 4T1).

`COc1cc(N2CCOCC2)ccc1Nc1ncc(Cl)c(Nc2ccccc2S(=O)(=O)NC2CCC2)n1` [Example 24-1]: the IC50 was determined as 3.6 nM in test [2] (read-out: FAK IC50); 50 nM on IGF-IR; 110 nM against FAK; 440 nM in test [1] (Mus musculus, 4T1).

In the case of `COc1cc(OC2CCN(C)CC2)ccc1Nc1ncc(Cl)c(Nc2ccccc2S(=O)(=O)NC2CCC2)n1` [Example 24-2], the IC50 came out at 2.1 nM in test [2] (read-out: FAK IC50); 390 nM on IGF-IR; 500 nM against FAK; 110 nM in test [1] (Mus musculus, 4T1).

As to `COc1cc(OC2CCN(C)CC2)ccc1Nc1ncc(Cl)c(Nc2ccccc2S(=O)(=O)NC2CCCC2)n1` [Example 25-2], the IC50 in test [2] (read-out: FAK IC50) is 3 nM; on IGF-IR it was 640 nM; against FAK, 400 nM; in test [1] (Mus musculus, 4T1), 130 nM.

`CCCS(=O)(=O)c1ccccc1Nc1nc(Nc2ccc(N3CCOCC3)cc2OC)ncc1Cl` [Example 26-1]: the concentration for half-maximal inhibition (IC50) turned out to be 4.4 nM in test [2] (read-out: FAK IC50); 290 nM at IGF-IR; 50 nM against FAK; 350 nM in test [1] (Mus musculus, 4T1).

In the case of `CCCS(=O)(=O)c1ccccc1Nc1nc(Nc2cc(N3CCN(C(C)=O)CC3)ccc2OC)ncc1Cl` [Example 26-15], the concentration for half-maximal inhibition (IC50) in test [2] (read-out: FAK IC50) was determined as 6.9 nM; on IGF-IR, 70 nM; at FAK it was 1200 nM; in test [1] (Mus musculus, 4T1) it was 80 nM.

`CCCS(=O)(=O)c1ccccc1Nc1nc(Nc2ccc(N3CCN(C(C)C)CC3)cc2OC)ncc1Cl` [Example 26-23]: the IC50 in test [2] (read-out: FAK IC50) is 1.4 nM; at IGF-IR it was 180 nM; at FAK, 300 nM; in test [1] (Mus musculus, 4T1), 90 nM.

With `CCCS(=O)(=O)c1ccccc1Nc1nc(Nc2ccc(OC3CCN(C)CC3)cc2OC)ncc1Cl` [Example 26-26], the IC50 in test [2] (read-out: FAK IC50) was 1.9 nM; at IGF-IR, 340 nM; at FAK, 200 nM; in test [1] (Mus musculus, 4T1), 70 nM.

`COc1cc(N2CCCC(C(N)=O)C2)ccc1Nc1ncc(Cl)c(Nc2ccccc2S(=O)(=O)C(C)C)n1` (stereo not drawn) [Example 28-1]: the IC50 in test [2] (read-out: FAK IC50) is 12 nM; on IGF-IR, 300 nM; against FAK, 300 nM; in test [1] (Mus musculus, 4T1) it was 460 nM.

As to `COc1cc(N2CCN(CCO)CC2)ccc1Nc1ncc(Cl)c(Nc2ccccc2S(=O)(=O)C(C)C)n1` [Example 28-2], the half-inhibitory concentration (IC50) in test [2] (read-out: FAK IC50) came out at 1.9 nM; on IGF-IR, 3710 nM; against FAK, 80 nM; in test [1] (Mus musculus, 4T1), 440 nM.

For `COc1cc(N2CCN(C3CCN(C)CC3)CC2)ccc1Nc1ncc(Cl)c(Nc2ccccc2S(=O)(=O)C(C)C)n1` [Example 28-24], the IC50 in test [2] (read-out: FAK IC50) was 2.9 nM; at IGF-IR, 2570 nM; on FAK, 200 nM; in test [1] (Mus musculus, 4T1), 90 nM.

Regarding `CCC(CC)S(=O)(=O)c1ccccc1Nc1nc(Nc2ccc(N3CCOCC3)cc2OC)ncc1Cl` [Example 29-1], the half-inhibitory concentration (IC50) is 13 nM in test [2] (read-out: FAK IC50); 90 nM on IGF-IR; 700 nM at FAK; 2200 nM in test [1] (Mus musculus, 4T1).

`COc1cc(N2CCOCC2)ccc1Nc1ncc(Cl)c(Nc2ccccc2S(=O)(=O)CC(C)C)n1` [Example 32-2]: the IC50 was 5.9 nM in test [2] (read-out: FAK IC50); 120 nM on IGF-IR; 50 nM against FAK; 370 nM in test [1] (Mus musculus, 4T1).

Turning to `COc1cc(N2CCOCC2)ccc1Nc1ncc(Cl)c(Nc2ccccc2S(=O)(=O)C2CCCC2)n1` [Example 33-2], the IC50 was 5.2 nM in test [2] (read-out: FAK IC50); 100 nM at IGF-IR; 60 nM on FAK; 250 nM in test [1] (Mus musculus, 4T1).

For the compound `CCCCS(=O)(=O)c1ccccc1Nc1nc(Nc2ccc(N3CCOCC3)cc2OC)ncc1Cl` [Example 34-1], the half-inhibitory concentration (IC50) in test [2] (read-out: FAK IC50) was determined as 8 nM; on IGF-IR, 280 nM; against FAK, 100 nM; in test [1] (Mus musculus, 4T1) it was 370 nM.

Take `COc1cc(N2CCOCC2)ccc1Nc1ncc(Br)c(Nc2ccccc2S(=O)(=O)N(C)C)n1` [Example 51, 2-[5-bromo-2-(2-methoxy-4-morpholin-4-yl-phenylamino)-pyrimidin-7-ylamino]-N,N-dimethyl-benznensulfonamide]: the IC50 in test [2] (read-out: FAK IC50) came to 8.1 nM; on IGF-IR it was 200 nM; against FAK it was 13 nM; in test [1] (Mus musculus, 4T1), 190 nM.

For `CNS(=O)(=O)c1cc(F)ccc1Nc1nc(Nc2ccc(N3CCOCC3)cc2OC)ncc1Br` [Example 52, 2-[5-Bromo-2-(2-methoxy-4-morpholin-4-yl-phenylamino)-pyrimidin-4-ylamino]-5-fluoro-N-methyl-benzenesulfonamide], the IC50 in test [2] (read-out: FAK IC50) was 13 nM; at IGF-IR, below 80 nM; against FAK, 200 nM; in test [1] (Mus musculus, 4T1), 410 nM.
